System: 349418-098-R-PDC complex spheroid growth
Assay: Anticancer human tumor 349418-098-R-PDC patient-derived lung adenocarcinoma cell line growth inhibition [AhR]
Conditions: for IC50: curve of first compound; for viability, T/C: stronger effect = lower value
Excerpt: Multicellular complex tumor spheroid response to aryl hydrocarbon receptor antagonists in combination with a variety of drugs and investigational agents in selected tumor cell lines
The current study was undertaken to assess response to aryl hydrocarbon receptor antagonists in combination with standard-of-care drugs and investigational agents in solid tumor complex spheroid models. Complex spheroids include a stromal component modeled by human endothelial cells (HUVEC) and fibroblasts modeled by human mesenchymal stem cells (MSCs). The concentration ranges selected for each drug and investigational agent were based upon clinically achievable concentrations if the clinical Cmax of the agent was known.
Compounds. The drugs and investigational agents: BAY 2416964 (NSC825713), GNF351 (NSC835774), CH-223191 (NSC835775), CPI-455 (NSC825282), aza-TdCyd (NSC777586), decitabine (NSC127716), belinostat (NSC758774), entinostat (NSC756642), pevonedistat (NSC761192), tazemetostat (NSC777109), talazoparib (NSC765396), olaparib (NSC753686), selinexor (NSC780203), nedisertib (M3814, NSC802822), bortezomib (NSC756655), venetoclax (NSC766270), doxorubicin (NSC123127), elimusertib (BAY189344, NSC800525), ceralasertib (AZD6738, NSC777638), TAK-243 (NSC785004), alisertib (NSC759677), etoposide (NSC141540), topotecan (NSC609699), eribulin (NSC707389), gemcitabine (NSC613327), carboplatin (NSC241240), cisplatin (NSC119875), and SN-38 (NSC673596) were obtained from the National Cancer Institute (NCI) Developmental Therapeutics Program Chemical Repository (32). The FDA-approved anticancer drug set is available from the Developmental Therapeutics Program at https://dtp.cancer.gov/organization/dscb/obtaining/available plates.htm. […] The stock solutions were prepared in dimethyl sulfoxide (DMSO, Sigma-Aldrich, St. Louis, MO, cat. D2650), except for the platinum compounds which were prepared in saline (Quality Biological, Gaithersburg, MD, cat. 114-055-101), at 800-fold the tested concentration and stored at -70 degrees C prior to their use. All drugs and investigational agents were tested over a range starting from a high concentration at or near the clinical Cmax and decreasing in half-log increments. If the clinical Cmax for an agent had not been determined, the highest concentration tested was 10 microM (Table 1).
Cell Culture. All cells were maintained in an incubator at 37 degrees C and 5% CO2 with 95% humidity. The PDC lines were cultured according to standard operating procedures established by the NCI PDMR (https://pdmr.cancer.gov). Briefly, all PDCs were thawed and cultured in Matrigel-coated flasks prepared with a working solution of 1X Ham's F-12 nutrient mix, without supplementation (Invitrogen, Waltham, MA, cat. 11765054), 100 U/mL penicillin-streptomycin (Invitrogen, cat. 15140122), and 2.5% Matrigel (Corning Inc., Corning, NY, cat. 354248) for the first three passages. All PDCs were cultured in complete DMEM/F-12 media containing advanced DMEM/F-12 (Invitrogen, cat. 12634028), 4.9% defined fetal bovine serum, heat inactivated (HyClone Laboratories Inc., Logan, UT, cat. SH30070.03HI), 389 ng/mL hydrocortisone (Sigma-Aldrich, cat. H4001), 9.7 ng/mL human EGF recombinant protein (Invitrogen, cat. PHG0313), 23.4 microg/mL adenine (Sigma-Aldrich, cat. A2786), 97.3 U/mL penicillin-streptomycin (Invitrogen, cat. 15140122), 1.9 mM L-glutamine (Invitrogen, cat. 25030081), and 9.7 microM Y-27632 dihydrochloride (Tocris Bioscience, Bristol, United Kingdom, cat. 1254). The PDCs were cultured in complete DMEM/F12 media without 10 microM Y-27632 dihydrochloride for at least two passages prior to the screen. The established cell lines NCI-H1341 and […] were cultured in DMEM/F-12, HEPES (Invitrogen, cat. 11330032), 5% defined fetal bovine serum (HyClone Laboratories Inc., cat. SH30070.03), ITS premix universal culture supplement [insulin (5 microg/mL), transferrin (5 microg/mL), and selenious acid (5 ng/mL)] […]
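Further: spheroids exposed to agents for seven days before luminescence viability read.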
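Wherever viability, T/C is given: spheroids also contain HUVEC endothelial cells and human MSC stroma.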

What does the source list for `CCc1c2c(nc3ccc(O)cc13)-c1cc3c(c(=O)n1C2)COC(=O)[C@]3(O)CC` + CC(CO)NC(=O)c1cc(-c2ccc(Cl)cc2)nn(-c2cnn(C)c2)c1=O?
IC50 (second compound 0.1 µM): < 0.949 nM; IC50 (second compound 0.316 µM): < 0.949 nM; IC50 (second compound 1 µM): < 0.949 nM; IC50 (second compound 3.16 µM): < 0.949 nM; IC50 (second compound 10 µM): < 0.949 nM; viability, T/C (second compound 0.1 µM, first compound 0.000949 µM): 42.1%; viability, T/C (second compound 0.1 µM, first compound 0.003 µM): 37.1%; viability, T/C (second compound 0.1 µM, first compound 0.00949 µM): 18.3%; viability, T/C (second compound 0.1 µM, first compound 0.03 µM): 8.94%; viability, T/C (second compound 0.1 µM, first compound 0.0949 µM): 5.8%; viability, T/C (second compound 0.1 µM, first compound 0.3 µM): 3.72%; viability, T/C (second compound 0.316 µM, first compound 0.000949 µM): 34.2%; viability, T/C (second compound 0.316 µM, first compound 0.003 µM): 30.5%; viability, T/C (second compound 0.316 µM, first compound 0.00949 µM): 13.1%; viability, T/C (second compound 0.316 µM, first compound 0.03 µM): 7.93%; viability, T/C (second compound 0.316 µM, first compound 0.0949 µM): 5.5%; viability, T/C (second compound 0.316 µM, first compound 0.3 µM): 4.2%; viability, T/C (second compound 1 µM, first compound 0.000949 µM): 33.9%; viability, T/C (second compound 1 µM, first compound 0.003 µM): 21%; viability, T/C (second compound 1 µM, first compound 0.00949 µM): 14.2%; viability, T/C (second compound 1 µM, first compound 0.03 µM): 9.54%; viability, T/C (second compound 1 µM, first compound 0.0949 µM): 8.88%; viability, T/C (second compound 1 µM, first compound 0.3 µM): 4.3%; viability, T/C (second compound 3.16 µM, first compound 0.000949 µM): 22.4%; viability, T/C (second compound 3.16 µM, first compound 0.003 µM): 18.9%; viability, T/C (second compound 3.16 µM, first compound 0.00949 µM): 13%; viability, T/C (second compound 3.16 µM, first compound 0.03 µM): 7.97%; viability, T/C (second compound 3.16 µM, first compound 0.0949 µM): 6.24%; viability, T/C (second compound 3.16 µM, first compound 0.3 µM): 4.5%; viability, T/C (second compound 10 µM, first compound 0.000949 µM): 20.1%; viability, T/C (second compound 10 µM, first compound 0.003 µM): 17.4%; viability, T/C (second compound 10 µM, first compound 0.00949 µM): 12.2%; viability, T/C (second compound 10 µM, first compound 0.03 µM): 8.79%; viability, T/C (second compound 10 µM, first compound 0.0949 µM): 6.32%; viability, T/C (second compound 10 µM, first compound 0.3 µM): 5.7%

`O=C(c1cc(Cc2n[nH]c(=O)c3ccccc23)ccc1F)N1CCN(C(=O)C2CC2)CC1` + CC(CO)NC(=O)c1cc(-c2ccc(Cl)cc2)nn(-c2cnn(C)c2)c1=O was tested. Which IC50 (second compound 0.1 µM) did it give?
The IC50 was over 10000 nM.

And the IC50 (second compound 0.316 µM)?
The IC50 was 5210 nM.

What about the IC50 (second compound 1 µM) of the same molecule?
Its IC50 is 7430 nM.

And the IC50 (second compound 3.16 µM)?
Its IC50 is 3540 nM.

What about the IC50 (second compound 10 µM) of the same molecule?
The IC50 was 482 nM.

And the viability, T/C (second compound 0.1 µM, first compound 0.0316 µM)?
Its viability, T/C is 84.2%.

What about the viability, T/C (second compound 0.1 µM, first compound 0.1 µM) of the same molecule?
The viability, T/C was 81.6%.

What about the viability, T/C (second compound 0.1 µM, first compound 0.316 µM) of the same molecule?
Its viability, T/C is 82.8%.

What about the viability, T/C (second compound 0.1 µM, first compound 1 µM) of the same molecule?
Its viability, T/C is 101%.

And the viability, T/C (second compound 0.1 µM, first compound 3.16 µM)?
Its viability, T/C is 64.2%.

What about the viability, T/C (second compound 0.1 µM, first compound 10 µM) of the same molecule?
Its viability, T/C is 60.1%.

What about the viability, T/C (second compound 0.316 µM, first compound 0.0316 µM) of the same molecule?
The viability, T/C was 101%.

And the viability, T/C (second compound 0.316 µM, first compound 0.1 µM)?
Its viability, T/C is 101%.

What about the viability, T/C (second compound 0.316 µM, first compound 0.316 µM) of the same molecule?
Its viability, T/C is 89.7%.

What about the viability, T/C (second compound 0.316 µM, first compound 1 µM) of the same molecule?
The viability, T/C was 64.4%.

And the viability, T/C (second compound 0.316 µM, first compound 3.16 µM)?
The viability, T/C was 63.6%.

And the viability, T/C (second compound 0.316 µM, first compound 10 µM)?
The viability, T/C was 39.2%.

And the viability, T/C (second compound 1 µM, first compound 0.0316 µM)?
The viability, T/C was 95.5%.

What about the viability, T/C (second compound 1 µM, first compound 0.1 µM) of the same molecule?
Its viability, T/C is 74.4%.

And the viability, T/C (second compound 1 µM, first compound 0.316 µM)?
The viability, T/C was 73.7%.

What about the viability, T/C (second compound 1 µM, first compound 1 µM) of the same molecule?
Its viability, T/C is 66.9%.

What about the viability, T/C (second compound 1 µM, first compound 3.16 µM) of the same molecule?
Its viability, T/C is 59.8%.

And the viability, T/C (second compound 1 µM, first compound 10 µM)?
The viability, T/C was 44.8%.

And the viability, T/C (second compound 3.16 µM, first compound 0.0316 µM)?
Its viability, T/C is 85.4%.

And the viability, T/C (second compound 3.16 µM, first compound 0.1 µM)?
The viability, T/C was 87.9%.

What about the viability, T/C (second compound 3.16 µM, first compound 0.316 µM) of the same molecule?
The viability, T/C was 77.9%.

What about the viability, T/C (second compound 3.16 µM, first compound 1 µM) of the same molecule?
The viability, T/C was 61.2%.

And the viability, T/C (second compound 3.16 µM, first compound 3.16 µM)?
The viability, T/C was 55.2%.

What about the viability, T/C (second compound 3.16 µM, first compound 10 µM) of the same molecule?
Its viability, T/C is 33.7%.

And the viability, T/C (second compound 10 µM, first compound 0.0316 µM)?
The viability, T/C was 42.1%.

What about the viability, T/C (second compound 10 µM, first compound 0.1 µM) of the same molecule?
The viability, T/C was 60.6%.

What about the viability, T/C (second compound 10 µM, first compound 0.316 µM) of the same molecule?
The viability, T/C was 58.6%.

And the viability, T/C (second compound 10 µM, first compound 1 µM)?
Its viability, T/C is 43.5%.

What about the viability, T/C (second compound 10 µM, first compound 3.16 µM) of the same molecule?
The viability, T/C was 38.3%.

What about the viability, T/C (second compound 10 µM, first compound 10 µM) of the same molecule?
Its viability, T/C is 33.7%.
